According to patent publication US20100285146A1, “PEPTIDES AND METHODS FOR THE TREATMENT OF SYSTEMIC LUPUS ERYTHEMATOSUS” (priority 2007, published 2010):
No end group written: not given here.

Experiments:
[1] = system: C72 murine anti-DNA antibody; experiment: Anti-peptide direct binding ELISA with C72; settings: for C72 Binding: direct binding ELISA, footnote: O.D. after one (1) hour
Method: (§1) Wells were coated with 10 μg/ml of the peptides, blocked with 1% BSA (bovine serum albumin) in PBS (pH 7.4), reacted with appropriately diluted plasma or monoclonal antibodies, incubated with anti-human or anti-mouse immunoglobulin enzyme conjugated to alkaline phosphatase and detected by addition of substrate (Sigma 100 Phosphatase Substrate Tablets) and color development using an Organon Teknika Microwell System spectrometer at wavelength of 405 nm.
(§2) The interaction of the C72 murine anti-DNA antibody with laminin peptides was analyzed by ELISA as described above. The C72 conditioned medium was diluted in PBS in various dilutions.
(§3) The peptides of the present invention were tested for their ability to bind directly with C72 murine anti-DNA antibodies and B3 human anti-DNA antibodies according to the method described hereinabove.

[2] = system: B3 human anti-DNA antibodies; experiment: Anti-peptide direct binding ELISA with B3; settings: for B3 Binding: direct binding ELISA, footnote: O.D. after two (2) hours
Method: as §1
(§4) The human monoclonal anti-DNA antibodies DIL 6 and B3 were derived from lupus patients by the hybridoma technique. […] In FIGS. 3 and 4, the peptides are referred to as denoted above or as follows; AS30 is R27, AS19 is R35, AS35 is R26, AS17 is R28 and AS6 is R18.
as §3

[3] = system: C72 murine anti-DNA antibody; experiment: Competitive inhibition of the binding of C72 to 5200; settings: after incubation of C72 with the inhibiting agent
Method: The binding of C72 to 5200 was tested before and after incubation with 5200, R38, R18, Heparin, DNA and DNase. […] The percent inhibition is the percent reduction of the O.D. after incubation with the inhibiting agent.

[4] = target: C72 anti-DNA antibody; experiment: Competitive inhibition of C72 binding to R38 (5100); parameters: species or system murine; settings: concentration of competitive inhibitor giving 50% inhibition, ELISA
Excerpt: A competitive inhibition study compared how each of the peptides competes with R38 (5100) for binding to the C72 anti-DNA antibody. Conducted according to the methods described hereinabove, the results of the study are disclosed in Table 4 below and are further elucidated by reference to FIG. 10.

[5] = system: urine antibodies of lupus patients; experiment: Urine anti-peptide antibody ELISA in patients; type: binding, human; settings: Example 5
Method: as §1
Activity of the disease was evaluated also by accepted clinical and serological parameters (Lockshin M. D. et al. Am. J. Med (1984) 77 893-898) and their correlation with anti-R38 levels was compared. 103 urine samples of 37 SLE patients were tested for anti-R38 activity by ELISA as described above. 23 of the samples were from patients without renal disease and 80 samples from patients with renal disease. A further 12 samples from patients with renal disease not related to SLE were also included.

[6] = system: MRL/1pr/1pr mice; experiment: Clinical course of murine SLE (survival, renal histology); type: in vivo; settings: for renal histology by light microscopy: two mice sacrificed after 5 months, controls severe diffuse proliferative glomerulonephritis
Method: To test whether R38 peptides can affect the course of SLE we have tested their effect on MRL/1pr/1pr mice disease. 60 μg of 5200 (R38′ alone or in peptide combinations, 30 μg of each) in 0.1 ml PBS, was injected i.p. to 6 week old female MRL/1pr/1pr mice once a week for 16 weeks and the mice were evaluated for survival (FIG. 8), and for renal histology.
50 μg of 5100 (R38) or 5300 (human R38) in 0.1 ml PBS, was injected i.p. to 6 week old MRL/1pr/1pr mice three times a week and the mice were evaluated for survival (FIG. 9), and for renal histology. Control mice received 0.1 ml phosphate buffer solution. Each test and control group contained 12-15 mice.
The survival of MRL/1pr/1pr mice treated with 5100, 5200 or 5300 was compared to that of PBS treated mice. […] In FIGS. 8 and 9 the time in days shown on the x axis relates to the age of the mice. Two mice in each group were sacrificed after 5 months and their kidneys evaluated by light microscopy.

[7] = system: C72 antibody; experiment: Affinity absorption on R38 column, C72 sample; type: binding, mouse
Method: (§5) The R38 peptide was dissolved in the coupling buffer (0.2M NaHCO3, 0.5M NaCl, pH 8.3) in a concentration of 1 mg/ml in 5 ml coupling buffer. A 5 ml N-hydroxysuccinimide (NHS)-activated Sepharose™ High Performance Column (Pharmacia 17-0717-01) is used. The isopropanol in the column was washed out from the column with 30 ml of cold (4° C.) 1 mM HCl and 5 ml of the peptide solution was then injected onto the column with a syringe (2.5 ml/minute). The column was sealed and stood for 30 minutes at room temperature. The column was then washed with 30 ml Buffer A (0.5 M ethanolamine, 0.5 M NaCl, pH 8.3) and 30 ml Buffer B (0.5 M acetate, 0.5 M NaCl, pH 4) consecutively three times, and then with neutral pH buffer (0.05 M Na2HPO4 and 0.1% NaN3).
The column was washed with 15 ml PBS (phosphate buffered saline), followed by 15 ml elution buffer (0.1 M glycine HCl) and then 50 ml PBS. The C72 antibody or the patients' plasma samples were filtered through a 0.45 microm filter. The samples were applied onto the column by a fitted syringe at a rate of 2.5 ml/min. The column was then washed with 5 ml PBS and the flow-through was applied to the column again. […]
(§6) In the instant example, the mouse C72 and the SLE patients' plasma were applied to the R38 column. Their anti-R38 binding was evaluated by ELISA in the original samples and in the flow-through of the column.

[8] = system: anti-R38 antibodies in human plasma; experiment: Affinity absorption on R38 column, human plasma samples; type: binding; settings: for Binding to R38 (O.D.), Original sample: before column; for Binding to R38 (O.D.), After immunoabsorption: flow-through of R38 column
Method: as §5
The column was washed with 15 ml PBS (phosphate buffered saline), followed by 15 ml elution buffer (0.1 M glycine HCl) and then 50 ml PBS. The C72 antibody or the patients' plasma samples were filtered through a 0.45 microm filter. The samples were applied onto the column by a fitted syringe at a rate of 2.5 ml/min. The column was then washed with 5 ml PBS and the flow-through was applied to the column again. The binding of the samples (original and flow-through) to R38 was tested by the anti-R38 ELISA test.
as §6

[9] = system: urine antibodies of lupus patients; experiment: Urine anti-peptide antibody ELISA in patients; type: binding, human
[10] = system: human monoclonal anti-DNA antibody DIL 6; experiment: Anti-peptide direct binding ELISA with DIL6
Method: as §1, §4

[11] = system: anti-HEL Hy5 control murine antibody; experiment: Direct binding ELISA with control murine antibody; settings: data not shown
Method: as §1, §2

[12] = system: MRL/1pr/1pr urine antibodies; experiment: Binding of murine urinary immunoglobulins, MRL/1pr/1pr urine; parameters: species or system mice
Method: as §1
(§7) Thus, pooled urine from at least 5 mice (either MRL/1pr/1pr or control mice, e.g. BALB/c) was added to wells coated with R38′ (5200), R18 or DNA as described above and bound 5200 assayed by ELISA.
(§8) Each group is comprised of pooled urine.

[13] = system: BALB/c urinary immunoglobulins; experiment: Binding of murine urinary immunoglobulins, BALB/c control urine; settings: pooled urine of BALB/c control mice
Method: as §1, §7, §8

[14] = target: 5101 peptide (Res. 1-16 of 5100) (mouse); experiment: direct binding ELISA, peptide-coated wells, read after two hours
[15] = target: 5102 peptide (Res. 6-17 of 5100) (mouse); experiment: as above
[16] = target: 5200 peptide (R38′), mouse R38 analog; experiment: as above
Chain of 5200 peptide (R38′), mouse R38 analog (peptide, as listed by the source): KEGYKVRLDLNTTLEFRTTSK

[17] = target: 5300 peptide, human R38 (human); experiment: as above
Chain of 5300 peptide, human R38 (human) (peptide, as listed by the source): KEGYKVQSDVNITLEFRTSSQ

[18] = target: R38 peptide (5100), mouse R38 (mouse); experiment: as above

KEGYKVRLDLNITLEFRTTSK [Peptide 5100]
C72 Binding [1]: 2.57 O.D.
B3 Binding [2]: 0.9 O.D.
inhibition of the binding of C72 to 5200 (FIG. 2) [3]: inhibition
50% Inhibition of C72 binding to mouse R38 (5100) [4]: 10 µg/mL
Urine anti-R38 O.D. (Mean + S.E.) ([5]; SLE absent, renal disease present, 12 samples): 0.07 ± 0.01 O.D.
Urine anti-R38 O.D. (Mean + S.E.) ([5]; SLE present, renal disease absent, 23 samples): 0.035 ± 0.003 O.D.
Urine anti-R38 O.D. (Mean + S.E.) ([5]; SLE present, renal disease present, 80 samples, p < 0.001): 0.229 ± 0.03 O.D.
survival versus PBS control mice (FIG. 9) ([6]; 50 μg i.p. three times a week, 6 week old mice): significantly higher
renal histology by light microscopy ([6]; 50 μg i.p. three times a week): mild proliferative changes with no crescents and no sclerosis
Binding to R38 (O.D.), Original sample ([7]; sample C72, before column): 1.96 O.D.
Binding to R38 (O.D.), After immunoabsorption ([7]; sample C72, flow-through of R38 column): 0.02 O.D.
Binding to R38 (O.D.), Original sample ([8]; Healthy donor's plasma): 0.26 O.D.
Binding to R38 (O.D.), After immunoabsorption ([8]; Healthy donor's plasma): 0.06 O.D.
Binding to R38 (O.D.), Original sample ([8]; SLE patient 1 plasma): 1.5 O.D.
Binding to R38 (O.D.), After immunoabsorption ([8]; SLE patient 1 plasma): 0.6 O.D.
Binding to R38 (O.D.), Original sample ([8]; SLE patient 2 plasma): 2.3 O.D.
Binding to R38 (O.D.), After immunoabsorption ([8]; SLE patient 2 plasma): 1.6 O.D.
Urine anti-5100 O.D. (Mean + S.E.) ([9]; Example 7, renal disease absent, 6 samples): 0.058 ± 0.006 O.D.
Urine anti-5100 O.D. (Mean + S.E.) ([9]; Example 7, renal disease present, 39 samples, p < 0.03): 0.376 ± 0.05 O.D.

CC(C)C[C@H](NC(=O)[C@H](CC(=O)O)NC(=O)[C@H](CC(C)C)NC(=O)[C@H](CCCNC(=N)N)NC(=O)[C@@H](NC(=O)[C@H](CCCCN)NC(=O)[C@H](Cc1ccc(O)cc1)NC(=O)CNC(=O)[C@H](CCC(=O)O)NC(=O)[C@@H](N)CCCCN)C(C)C)C(=O)N[C@@H](CC(N)=O)C(=O)N[C@H](C(=O)N[C@H](C(=O)N[C@@H](CC(C)C)C(=O)N[C@@H](CCC(=O)O)C(=O)N[C@@H](Cc1ccccc1)C(=O)N[C@@H](CCCNC(=N)N)C(=O)N[C@H](C(=O)N[C@H](C(=O)N[C@@H](CO)C(=O)N[C@@H](CCCCN)C(=O)O)[C@@H](C)O)[C@@H](C)O)[C@@H](C)O)[C@@H](C)O (stereo in doubt) [Peptide 5200]
binding of C72 murine anti-DNA antibody to laminin peptides (FIG. 1) ([1]; ELISA, C72 conditioned medium in various dilutions): binding
C72 Binding [1]: 1.8 O.D.
binding of B3 to laminin peptides (FIGS. 3 and 4) [2]: bind
B3 Binding [2]: 0.25 O.D.
binding of DIL 6 to laminin peptides (FIGS. 3 and 4) [10]: bind
binding of control antibody anti-HEL Hy5 [11]: did not bind
inhibition of the binding of C72 to 5200 (FIG. 2) [3]: inhibition
50% Inhibition of C72 binding to mouse R38 (5100) [4]: 10 µg/mL
interaction of MRL/1pr/1pr urine antibodies with peptide ([12]; direct binding ELISA): specific binding
Binding of murine urinary immunoglobulins to antigen ([12]; pooled urine of MRL/1pr/1pr mice): 0.26(*) O.D. at 405 nm
Binding of murine urinary immunoglobulins to antigen [13]: U.D.
survival versus PBS control mice (FIG. 8) ([6]; 60 μg i.p. once a week for 16 weeks, 6 week old female mice): significantly higher
renal histology by light microscopy ([6]; 60 μg i.p. once a week): mild proliferative changes with no crescents and no sclerosis
Urine anti-5200 O.D. (Mean + S.E.) ([9]; Example 6, renal disease absent, 46 samples): 0.05 ± 0.005 O.D.
Urine anti-5200 O.D. (Mean + S.E.) ([9]; Example 6, renal disease present, 132 samples, p < 0.001): 0.335 ± 0.035 O.D.
Urine anti-5200 O.D. (Mean + S.E.) ([9]; Example 8, renal disease absent, 6 samples): 0.052 ± 0.03 O.D.
Urine anti-5200 O.D. (Mean + S.E.) ([9]; Example 8, renal disease present, 46 samples): 0.431 ± 0.09 O.D.

B3 human monoclonal anti-DNA antibody
O.D. in a direct binding ELISA [14]: 0.1 O.D.
O.D. in a direct binding ELISA [15]: 0.02 O.D.
O.D. in a direct binding ELISA [16]: 0.25 O.D.
O.D. in a direct binding ELISA [17]: 0.03 O.D.
O.D. in a direct binding ELISA [18]: 0.9 O.D.
